Measurements taken from patent publication US20090253757A1, “Plant protection agents” (priority 1996, published 2009).

System: Erysiphe graminis
Assay: Activity against Erysiphe graminis on barley (residual protective / systemic)
Format: in vivo
From the text: A synergistic effect is present if the activity of the active ingredient combination is greater than the sum of activities of the individual components. The activity E to be expected for a given active ingredient combination obeys the so-called COLBY formula and may be calculated as follows (COLBY, S. R. “Calculating synergistic and antagonistic responses of herbicide combination”. Weeds, Vol. 15, pages 20-22; 1967): ppm=milligrams active ingredient (=ai) per litre spray mixture X=% activity from active ingredient I during application of p ppm of active ingredient Y=% activity from active ingredient II during application of q ppm of active ingredient The expected (additive) activity of active ingredients I+II during application of […] active ingredient is, according to Colby If the activity actually observed (O) is greater than the expected activity (E), then the combination is super-additive in its activity, i.e. there is a synergistic effect ([…] factor). Barley plants of approximately 8 cm height are sprayed until dripping wet with an aqueous spray mixture prepared from wettable powder of the active ingredient mixture, and 3 to 4 hours later are dusted with conidia of the fungus. The infected plants are placed in a greenhouse at […]. 12 days after infection, the fungal attack is evaluated. An aqueous spray mixture prepared from wettable powder of the active ingredient mixture is poured onto barley plants of approximately 8 cm height. […] 48 hours later, the plants are dusted with conidia of the fungus. The infected plants are placed in a greenhouse at 22° C. 12 days after infection, the fungal attack is evaluated.

Structure (SMILES) | % activity found O (active ingredient I 0.1 mg/litre alone) [%] | % activity found O (active ingredient I 1.0 mg/litre alone) [%] | inhibition at 0.1 µg/mL (Blumeria graminis, active ingredient IIA 0.1 mg/litre alone, read-out: % activity found O) [%] | inhibition at 0.5 µg/mL (Blumeria graminis, active ingredient IIA 0.5 mg/litre alone, read-out: % activity found O) [%] | inhibition at 1 µg/mL (Blumeria graminis, active ingredient IIA 1.0 mg/litre alone, read-out: % activity found O) [%] | inhibition at 10 µg/mL (Blumeria graminis, active ingredient IIA 10.0 mg/litre alone, read-out: % activity found O) [%]
CON=C(C(=O)OC)c1ccccc1CON=C(C)c1cccc(C(F)(F)F)c1 [I, 2-[α-{[(α-methyl-3-trifluoromethyl-benzyl)imino]-oxy}-o-tolyl]-glyoxylic acid-methylester-O-methyloxime] | 6 | 30 | – | – | – | –
Fc1ccc(Oc2ccnc3cc(Cl)cc(Cl)c23)cc1 [IIA, 5,7-dichloro-4-(4-fluorophenoxy)quinoline] | – | – | 4 | 6 | 8 | 21
